Source: article PMC6348381, “Discovery of an MLLT1/3 YEATS Domain Chemical Probe” (Angewandte Chemie (International Ed. in English), 2018)

How the values were obtained:
MLLT1 = target: T1, MLLT1 (Homo sapiens, UniProt Q03111); experiment: NanoBRET assay, full length MLLT1:Histone 3.3 in HEK293 cells; type: cell-based; details: relative to the DMSO control
T1 construct: We also developed a full length MLLT1:Histone 3.3 (H3.3) NanoBRET assay; host or cells: HEK293
Protocol: transfected with Histone H3.3-HaloTag (NM_002107) and a NanoLuciferase fusion of MLLT1 or MLLT3 (WT sequences from Promega HaloTag® human ORF in pFN21A) at a 1:500 and 1:10 (NanoLuc® to HaloTag®) ratio respectively with FuGENE HD transfection regent. Sixteen hours post-transfection, cells were collected and exchanged into media containing phenol red-free DMEM and 4% FBS in the absence (control sample) or the
Compounds were then added directly to media (in the presence of SAHA 2.5 M) at final concentrations 0.01-30 μM or an equivalent amount of DMSO as a vehicle control, and the plates were incubated for 24 h at 37 °C in the presence
NanoBRET Nano-Glo substrate (Promega) was added to both control and experimental samples at a final concentration of 10 µM. Readings were performed within 5 minutes using
BRET ratios are expressed as milliBRET units (mBU), where 1 mBU corresponds to the corrected BRET ratio multiplied by 1000.
Mean±SD of BRET ratio (mBU), n=4 technical replicates.

KIAA1240 = target: T2, KIAA1240 (Homo sapiens, UniProt Q9ULI0); experiment: Thermal shift assay, KIAA1240; type: binding
T2 construct: purchased in-house (SGC bromodomain thermal shift / AlphaScreen panel)
T2 sequence (Q9ULI0 1-1458): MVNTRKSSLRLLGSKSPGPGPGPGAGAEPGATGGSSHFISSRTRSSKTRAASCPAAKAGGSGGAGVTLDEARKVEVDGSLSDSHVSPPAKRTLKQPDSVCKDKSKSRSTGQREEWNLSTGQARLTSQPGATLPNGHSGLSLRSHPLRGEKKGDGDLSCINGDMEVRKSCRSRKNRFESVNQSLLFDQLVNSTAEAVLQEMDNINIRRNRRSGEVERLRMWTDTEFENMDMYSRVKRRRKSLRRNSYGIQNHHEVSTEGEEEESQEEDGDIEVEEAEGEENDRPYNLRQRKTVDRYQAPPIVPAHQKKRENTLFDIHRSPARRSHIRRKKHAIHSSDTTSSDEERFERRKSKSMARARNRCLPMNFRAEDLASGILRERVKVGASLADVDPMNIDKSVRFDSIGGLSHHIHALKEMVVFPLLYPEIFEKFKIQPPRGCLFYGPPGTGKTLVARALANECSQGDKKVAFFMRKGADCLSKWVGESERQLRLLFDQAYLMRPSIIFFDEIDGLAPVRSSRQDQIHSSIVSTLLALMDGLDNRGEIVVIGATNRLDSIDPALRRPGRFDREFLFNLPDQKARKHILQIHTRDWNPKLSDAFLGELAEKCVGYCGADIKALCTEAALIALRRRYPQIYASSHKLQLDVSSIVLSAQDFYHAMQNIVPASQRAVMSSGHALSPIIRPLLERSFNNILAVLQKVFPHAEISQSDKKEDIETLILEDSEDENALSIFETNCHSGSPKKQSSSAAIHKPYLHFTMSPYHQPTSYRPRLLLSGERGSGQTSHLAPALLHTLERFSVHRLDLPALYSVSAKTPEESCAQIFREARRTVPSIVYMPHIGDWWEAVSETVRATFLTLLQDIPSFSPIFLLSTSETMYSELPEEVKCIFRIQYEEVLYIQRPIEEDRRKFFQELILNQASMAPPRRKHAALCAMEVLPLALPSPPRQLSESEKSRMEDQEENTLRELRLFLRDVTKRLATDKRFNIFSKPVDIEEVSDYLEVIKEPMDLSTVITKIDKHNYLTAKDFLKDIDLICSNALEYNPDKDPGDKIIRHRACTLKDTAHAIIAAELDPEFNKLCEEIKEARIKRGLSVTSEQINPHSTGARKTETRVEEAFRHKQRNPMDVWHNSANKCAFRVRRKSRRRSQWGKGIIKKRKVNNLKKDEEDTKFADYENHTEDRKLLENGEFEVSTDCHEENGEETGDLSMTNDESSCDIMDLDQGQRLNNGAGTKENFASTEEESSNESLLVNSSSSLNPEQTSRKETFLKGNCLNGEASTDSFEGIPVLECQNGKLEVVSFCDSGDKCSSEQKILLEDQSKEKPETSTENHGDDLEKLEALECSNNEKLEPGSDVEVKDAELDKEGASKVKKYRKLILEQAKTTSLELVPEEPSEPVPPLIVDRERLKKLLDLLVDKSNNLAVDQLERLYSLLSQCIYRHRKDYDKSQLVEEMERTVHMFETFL
Protocol: (§1) II.VII Thermal Shift Assay[6]
(§2) Thermal melting experiments were carried out using an Mx3005p Real Time PCR machine (Stratagene). Proteins were buffered in 10 mM HEPES pH 7.5, 500 mM NaCl and assayed in a 96-well plate at a final concentration of 2 μM in 20 μL volume. Compounds were added at a final concentration of 50 μM. SYPRO Orange (Molecular Probes) was added as a fluorescence probe at a dilution of 1:1000. Excitation and emission filters for the SYPRO-Orange dye were set to 465 nm and 590 nm, respectively. The temperature was raised with a step of 3 °C per minute from 25 °C to 96 °C and fluorescence readings were taken at each interval. The unfolding curves were fitted using the Boltzmann equation to determine the middle point of the transition.

PB1(4) = target: T3, PB1(4) (Homo sapiens, UniProt Q86U86); experiment: Thermal shift assay, PB1(4); type: binding
T3 construct: PB1(4); purchased in-house (SGC bromodomain thermal shift / AlphaScreen panel)
Protocol: as §1, §2

PB1(5) = target: T4, PB1(5) (Homo sapiens, UniProt Q86U86); experiment: Thermal shift assay, PB1(5); type: binding
T4 construct: PB1(5); purchased in-house (SGC bromodomain thermal shift / AlphaScreen panel)
Protocol: as §1, §2

PB1(3) = target: T5, PB1(3) (Homo sapiens, UniProt Q86U86); experiment: Thermal shift assay, PB1(3); type: binding
T5 construct: PB1(3); purchased in-house (SGC bromodomain thermal shift / AlphaScreen panel)
Protocol: as §1, §2

T3 sequence (Q86U86 496-637 limits assumed): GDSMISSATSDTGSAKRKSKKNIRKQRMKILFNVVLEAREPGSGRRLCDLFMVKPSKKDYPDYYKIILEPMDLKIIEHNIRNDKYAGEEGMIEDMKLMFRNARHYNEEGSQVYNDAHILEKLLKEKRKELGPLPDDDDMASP
T4 sequence (Q86U86 645-766 limits assumed): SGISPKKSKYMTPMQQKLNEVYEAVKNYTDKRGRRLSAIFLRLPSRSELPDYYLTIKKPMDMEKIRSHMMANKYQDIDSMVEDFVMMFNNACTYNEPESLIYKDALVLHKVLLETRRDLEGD
T5 sequence (Q86U86 388-494 limits assumed): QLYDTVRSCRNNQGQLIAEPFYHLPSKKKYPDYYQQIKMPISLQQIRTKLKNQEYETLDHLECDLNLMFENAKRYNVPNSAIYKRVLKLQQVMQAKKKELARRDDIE
T1 sequence (Q03111 whole entry): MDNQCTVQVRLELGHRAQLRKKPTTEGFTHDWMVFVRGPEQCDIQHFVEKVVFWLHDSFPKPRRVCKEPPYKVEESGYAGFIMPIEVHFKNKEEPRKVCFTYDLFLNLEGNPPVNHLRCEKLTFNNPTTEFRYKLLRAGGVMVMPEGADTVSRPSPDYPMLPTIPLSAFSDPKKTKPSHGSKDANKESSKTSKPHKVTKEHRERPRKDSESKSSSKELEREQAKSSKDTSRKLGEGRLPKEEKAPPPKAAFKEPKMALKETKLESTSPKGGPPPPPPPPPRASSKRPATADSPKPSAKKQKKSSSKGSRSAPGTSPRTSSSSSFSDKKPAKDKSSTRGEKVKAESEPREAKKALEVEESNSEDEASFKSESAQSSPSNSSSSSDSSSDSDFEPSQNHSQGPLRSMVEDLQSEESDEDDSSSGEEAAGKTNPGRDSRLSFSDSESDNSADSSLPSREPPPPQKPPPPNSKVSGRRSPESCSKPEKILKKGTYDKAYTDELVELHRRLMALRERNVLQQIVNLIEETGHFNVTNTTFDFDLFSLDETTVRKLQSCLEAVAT

Row | SMILES | BRET activity (mBU), MLLT1:H3.3 NanoBRET (MLLT1) | Thermal stabilisation, KIAA1240 (KIAA1240; 50 μM compound) | Thermal stabilisation, PB1(4) (PB1(4); 50 μM compound) | Thermal stabilisation, PB1(5) (PB1(5); 50 μM compound) | Thermal stabilisation, PB1(3) (PB1(3); 50 μM compound) | Thermal stabilisation, KIAA1240 (KIAA1240; 10 µM compound concentration) | Thermal stabilisation, PB1(4) (PB1(4); 10 µM compound concentration) | Thermal stabilisation, PB1(5) (PB1(5); 10 µM compound concentration) | Thermal stabilisation, PB1(3) (PB1(3); 10 µM compound concentration)
1 | C[C@H]1CCCN1Cc1nc2cc(NC(=O)c3ccc4c(cnn4C)c3)ccc2[nH]1 [Compound 92] | no reduction in mBU | 0.15 | -0.215 | -0.56 | 1.09 | – | – | – | –
2 | COC(=O)c1ccc(C(=O)Nc2ccc3[nH]c(CN4CCCCC4)nc3c2)cc1 [Compound 1] | – | 0.355 | 0.22 | -0.245 | 1.5 | – | – | – | –
3 | CCOC(=O)Nc1cc(-c2ccc(C)c(NS(C)(=O)=O)c2)nn2c(C)nnc12 [Bromosporine, reference compound] | – | – | – | – | – | 0.59 | 1.035 | 0.98 | 0.24
